# Measured values reported in patent publication US11446287B2, “Compounds and methods for EP300 or CBP modulation and indications therefor” (Opna Immuno-Oncology SA, priority 2019, dated 2022).
# Target: T1, Recombinant human CBP containing the bromodomain (CBP-BD (1043-1159)) (Homo sapiens, UniProt Q92793)
# T1 construct: Recombinant human CBP bromodomain (CBP-BD (1043-1159)); made in house; host or cells: E. coli BL21-CodonPlus (DE3), modified pET vector
# Experiment: CBP Alphascreen binding assay
# Conditions: read-out: CREBBP (CBP) IC50
# Summary of the method: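 Buffer: 50 mM HEPES pH 7.5, 50 mM NaCl, 0.01% BSA, 0.01% Triton X-100, 2 mM DTT. The signal was normalised to plate controls and fitted with a four-parameter curve to give IC50.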
# T1 sequence (Q92793 1081-1197): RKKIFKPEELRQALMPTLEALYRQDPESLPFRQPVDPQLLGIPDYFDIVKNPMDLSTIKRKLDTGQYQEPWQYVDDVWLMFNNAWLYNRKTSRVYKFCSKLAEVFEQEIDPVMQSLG
row,Compound,IC50
1,"Cc1noc(C)c1-c1cnc2c(-c3cc(C(=O)O)ccc3F)c(C(F)(F)F)n([C@@H](C)c3ccccn3)c2c1 [P-0238, (S)-3-(6-(3,5-dimethylisoxazol-4-yl)-1-(1-(pyridin-2-yl)ethyl)-2-(trifluoromethyl)-1H-pyrrolo[3,2-b]pyridin-3-yl)-4-fluorobenzoic acid]",0.1 to 1000 nM
2,"COc1ccc(C(=O)O)cc1-c1c(C(F)(F)F)n([C@@H](C)c2ccccn2)c2cc(-c3c(C)noc3C)cnc12 [P-0239, (S)-3-(6-(3,5-dimethylisoxazol-4-yl)-1-(1-(pyridin-2-yl)ethyl)-2-(trifluoromethyl)-1H-pyrrolo[3,2-b]pyridin-3-yl)-4-methoxybenzoic acid]",1000 to 8000 nM
3,"Cc1noc(C)c1-c1cnc2c(-c3cc(F)cc(C(=O)O)c3)c(C(F)(F)F)n([C@@H](C)c3ccccn3)c2c1 [P-0240, (S)-3-(6-(3,5-dimethylisoxazol-4-yl)-1-(1-(pyridin-2-yl)ethyl)-2-(trifluoromethyl)-1H-pyrrolo[3,2-b]pyridin-3-yl)-5-fluorobenzoic acid]",0.1 to 1000 nM
4,"Cc1noc(C)c1-c1cnc2c(-c3cc(Cl)cc(C(=O)O)c3)c(C(F)(F)F)n([C@@H](C)c3ccccn3)c2c1 [P-0241, (S)-3-chloro-5-(6-(3,5-dimethylisoxazol-4-yl)-1-(1-(pyridin-2-yl)ethyl)-2-(trifluoromethyl)-1H-pyrrolo[3,2-b]pyridin-3-yl)benzoic acid]",0.1 to 1000 nM
5,"Cc1noc(C)c1-c1cnc2c(-c3ccc(C(=O)O)c(F)c3)c(C(F)(F)F)n([C@@H](C)c3ccccn3)c2c1 [P-0242, (S)-4-(6-(3,5-dimethylisoxazol-4-yl)-1-(1-(pyridin-2-yl)ethyl)-2-(trifluoromethyl)-1H-pyrrolo[3,2-b]pyridin-3-yl)-2-fluorobenzoic acid]",1000 to 8000 nM
